“Also recorded” adds a separate entry of the source.
How the values were obtained:
[1] = system: bovine arrestin-1; assay: cwEPR of spin-labeled arrestin C-tail mutants; settings: spin-labeled Arr1 mutants, room temperature, compared with apo-Arr1; Figure 3D
[2] = target: Arr1 (Bos taurus, UniProt P08168); assay: Tyrosine fluorescence quenching assay of Arr1; type: binding, bovine; settings: intrinsic quenching assay, no Mg2+; Figure 6E-F, Table S1
Sequence of Arr1 (P08168 whole entry): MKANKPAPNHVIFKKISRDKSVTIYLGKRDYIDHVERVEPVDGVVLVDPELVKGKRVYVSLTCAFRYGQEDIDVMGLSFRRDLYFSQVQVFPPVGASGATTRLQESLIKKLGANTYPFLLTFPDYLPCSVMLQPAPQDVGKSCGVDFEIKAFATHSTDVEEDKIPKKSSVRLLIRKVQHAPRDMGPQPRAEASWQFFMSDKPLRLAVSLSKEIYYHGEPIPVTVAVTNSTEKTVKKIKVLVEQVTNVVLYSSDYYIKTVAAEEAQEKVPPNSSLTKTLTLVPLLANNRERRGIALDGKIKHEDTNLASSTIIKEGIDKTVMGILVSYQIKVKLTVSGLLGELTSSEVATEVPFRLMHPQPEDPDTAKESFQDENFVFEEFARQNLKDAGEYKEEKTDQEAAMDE

O=P(O)(O)O[C@@H]1[C@H](O)[C@H](O)[C@@H](OP(=O)(O)O)[C@H](OP(=O)(O)O)[C@H]1O [InsP3, (1,4,5) myo-D-inositol triphosphate]
C-tail flexibility by cwEPR (sites T396 and A401) [1]: slightly more flexibility than InsP6
relative affinity for Arr1 (in words) [2]: somewhat lower affinity; also recorded: lower relative affinity
